What all share (format): cell-based
For series [1], the system named is L-929 (mouse fibroblasts). Briefly: antiproliferative assay, L-929.
The test system of the next series is K-562 (human leukaemia). Briefly: antiproliferative assay, K-562.
Series [2] has as its system HeLa (human cervix carcinoma). Briefly: cytotoxicity assay, HeLa.
For series [3], the system named is PC-3 cells (prostate cancer). The series is described as follows: in vitro cytotoxic assay, PC-3.
For series [4], the system named is MCF-7 cells (breast cancer). Briefly: in vitro cytotoxic assay, MCF-7.

Bounds are passed on as bounds.

As for `CCC(=O)O[C@H]1[C@H](C)O[C@@H](O[C@H]2[C@H](N(C)C)[C@@H](O)[C@H](O[C@H]3[C@@H](CC=O)C[C@@H](C)[C@@H](O)/C=C/C=C/C[C@@H](C)OC(=O)C[C@@H](O)[C@@H]3OC)O[C@@H]2C)C[C@@]1(C)O` [compound 1, leucomycin A7], in series [1], the “antiproliferative activity in L-929 (in words)” value is on record as “not active at all”. For the same compound, the GI50 is above 66 µM in series [1] (read-out: L-929 GI50, antiproliferative activity, L-929 mouse fibroblasts) and above 66 µM in the series on K-562 (human leukaemia) (read-out: K-562 GI50, antiproliferative activity, K-562 human leukaemia). For the same compound, the “antiproliferative activity in K-562 (in words)” value with K-562 (human leukaemia) is on record as “not active at all”. Besides, the “cytotoxic activity in HeLa (in words)” value in series [2] is listed as “not active at all”. The CC50 in series [2] (read-out: HeLa CC50, cytotoxicity, HeLa human cervix carcinoma) is above 66 µM. In addition, the “cytotoxic activity in PC-3 (in words)” value in series [3] is on record as “not active at all”. Also, the “cytotoxic activity in MCF-7 (in words)” value in series [4] was “not active at all”.
